Test results from US11694765B2, “Interrogatory cell-based assays for identifying drug-induced toxicity markers” (Berg LLC, priority 2012, dated 2023).

Experiments:
[1] = system: GPAT1 and TAZ in hyperglycemia conditioned cardiomyocytes; experiment: Western blotting of GPAT1 and TAZ protein expression in cardiomyocytes; type: cell-based, human; details: diabetic drug plus rescue molecule (T+R)
Experimental: (§1) Human cardiomyocytes were subject to conditions simulating an diabetic environment experienced by the disease-relevant cells in vivo. Specifically, the cells were exposed to hyperglycemic conditions and hyperlipidemia conditions. The hyperglycemic condition was induced by culturing cells in media containing 22 mM glucose. The hyperlipidemia condition was induced by culturing the cells in media containing 1 mM L-carnitine, 0.7 mM Oleic acid and 0.7 mM Linoleic acid.
The cell model comprising the above-mentioned cells, wherein the cells were exposed to each condition described above, was additionally “interrogated” by exposing the cells to an “environmental perturbation” by treating with a diabetic drug (T) which is known to cause cardiotoxicity, a rescue molecule (R) or both the diabetic drug and the rescue molecule (T+R). Specifically, the cells were treated with diabetic drug; or treated with rescue molecule Coenzyme Q10 at 0, 50 μM, or 100 μM; or treated with both of the diabetic drug and the rescue molecule Coenzyme Q10.
Protein expression levels of GPAT1 and TAZ for each condition and each treatment were tested with western blotting.

[2] = system: normal fibroblast; details: co-administration with VEGF; cited from earlier work
[3] = system: melanoma cell; details: in the presence of VEGF; cited from earlier work
[4] = system: hyperglycemia conditioned cardiomyocytes; experiment: Mitochondrial oxygen consumption rate (Seahorse analyzer); type: cell-based, human; details: diabetic drug plus rescue molecule (T1+R or T2+R)
Experimental: as §1, with “acid. […]” for “acid.”
iProfiling of changes in total cellular protein expression by quantitative proteomics was performed for cell and media samples collected for each condition and with each “environmental perturbation”, i.e, diabetic drug treatment, Coenzyme Q10 treatment or both, using the techniques described above in the detailed description. […] Following data collection (Ct), the final fold change over control was determined using the δCt method as outlined in manufacturer's protocol. […] Functional assays such as Oxygen consumption rate OCR were measured by employing the Seahorse analyzer essentially as recommended by the manufacturer. OCR was recorded by the electrodes in a 7 μl chamber created with the cartridge pushing against the seahorse culture plate. […]

[5] = system: human mitochondrial energy metabolism genes in diabetic cardiomyocytes; experiment: Transcriptional profiling of mitochondrial energy metabolism genes in diabetic cardiomyocytes; type: cell-based; details: diabetic drug plus rescue molecule (T+R) vs untreated (UT)
Experimental: as §1, with “acid. […]” for “acid.”
Cell samples from each condition with each perturbation treatment were collected at various times following treatment, including after 6 hours of treatment. For certain conditions, media samples were also collected and analyzed.
iProfiling of changes in total cellular protein expression by quantitative proteomics was performed for cell and media samples collected for each condition and with each “environmental perturbation”, i.e, diabetic drug treatment, Coenzyme Q10 treatment or both, using the techniques described above in the detailed description. […] Following data collection (Ct), the final fold change over control was determined using the δCt method as outlined in manufacturer's protocol. […] Functional assays such as Oxygen consumption rate OCR were measured by employing the Seahorse analyzer essentially as recommended by the manufacturer. […]

COC1=C(OC)C(=O)C(C/C=C(\C)CC/C=C(\C)CC/C=C(\C)CC/C=C(\C)CC/C=C(\C)CC/C=C(\C)CC/C=C(\C)CC/C=C(\C)CC/C=C(\C)CCC=C(C)C)=C(C)C1=O [Coenzyme Q10]
protein expression level of GPAT1 [1]: normalized | protein expression level of TAZ [1]: normalized | levels of Bcl2 [2]: no effect | level of Bcl2 [3]: decreased | mitochondrial oxygen consumption rate (OCR) [4]: normalized | mitochondrial oxygen consumption rate (OCR) ([4]; listed as rescue molecule): normalizes OCR | transcriptional network and expression of human mitochondrial energy metabolism genes [5]: normalize gene expression and transcription | transcriptional network and expression of human mitochondrial energy metabolism genes ([5]; listed as rescue molecule): normalizes gene expression
